Assays:
Assay in all cases: relative viability (nuclei count vs DMSO), 5 days (fraction); higher = more cells survive
[1] = test system: NCI-H1915
Outline: (§1)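 After 5 days of treatment, lung cancer cells in 1536-well plates were fixed and stained in a single step (final 0.05% Triton X-100, 1% formaldehyde, 1 ug/ml Hoechst) and their nuclei counted on 4× images. Treatment had been applied by pin tool the day after seeding as one drug alone or as a fixed anchor-drug dose with five library-drug doses (not always all listed) in √10 steps. Relative viability is the nuclei count of treated wells divided by that of vehicle wells, and values are medians of duplicate plates.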

[2] = test system: NCI-H2087
Outline: as §1

[3] = test system: NCI-H647
Outline: as §1

[4] = test system: NCI-H650
Outline: as §1

[5] = test system: NCI-H2126
Outline: as §1

[6] = test system: NCI-H522
Outline: as §1

[7] = test system: PC-14
Outline: as §1

[8] = test system: NCI-H2405
Outline: as §1

[9] = test system: NCI-H322M
Outline: as §1

[10] = test system: H3255
Outline: as §1

[11] = test system: LC-2-ad
Outline: as §1

[12] = test system: HCC-78
Outline: as §1

[13] = test system: NCI-H1666
Outline: as §1

[14] = test system: RERF-LC-KJ
Outline: as §1

[15] = test system: LCLC-97TM1
Outline: as §1

[16] = test system: ChaGo-K-1
Outline: as §1

[17] = test system: 201T
Outline: as §1

[18] = test system: EPLC-272H
Outline: as §1

[19] = test system: NCI-H23
Outline: as §1

[20] = test system: NCI-H2347
Outline: as §1

[21] = test system: HCC-827
Outline: as §1

C[C@@H]1CN(CC(=O)Nc2ccc3c(c2)Cc2cccc(-c4cc(=O)cc(N5CCOCC5)o4)c2S3)C[C@H](C)O1 + NC(=O)Nc1cc(-c2cccc(F)c2)sc1C(=O)N[C@H]1CCCNC1 [AZD7762] (partner 0.2 µM)
relative viability ([1]; first compound 0.04 µM): 0.575
relative viability ([1]; first compound 0.1265 µM): 0.727
relative viability ([1]; first compound 0.4 µM): 0.735
relative viability ([1]; first compound 4 µM): 0.515
relative viability ([2]; first compound 0.04 µM): 1.26
relative viability ([2]; first compound 0.1265 µM): 1.17
relative viability ([2]; first compound 0.4 µM): 1.46
relative viability ([2]; first compound 4 µM): 0.954
relative viability ([3]; first compound 0.04 µM): 0.346
relative viability ([3]; first compound 0.1265 µM): 0.46
relative viability ([3]; first compound 0.4 µM): 0.515
relative viability ([3]; first compound 4 µM): 0.309
relative viability ([4]; first compound 0.04 µM): 0.981
relative viability ([4]; first compound 0.1265 µM): 0.853
relative viability ([4]; first compound 0.4 µM): 1.21
relative viability ([4]; first compound 4 µM): 0.895
relative viability ([5]; first compound 0.04 µM): 0.91
relative viability ([5]; first compound 0.1265 µM): 1.02
relative viability ([5]; first compound 0.4 µM): 0.964
relative viability ([5]; first compound 4 µM): 1.02
relative viability ([6]; first compound 0.04 µM): 0.526
relative viability ([6]; first compound 0.1265 µM): 0.743
relative viability ([6]; first compound 0.4 µM): 0.908
relative viability ([6]; first compound 4 µM): 0.814
relative viability ([7]; first compound 0.04 µM): 0.289
relative viability ([7]; first compound 0.1265 µM): 0.308
relative viability ([7]; first compound 0.4 µM): 0.32
relative viability ([7]; first compound 4 µM): 0.276
relative viability ([8]; first compound 0.04 µM): 0.703
relative viability ([8]; first compound 0.1265 µM): 0.795
relative viability ([8]; first compound 0.4 µM): 0.792
relative viability ([8]; first compound 4 µM): 0.676
relative viability ([9]; first compound 0.04 µM): 0.527
relative viability ([9]; first compound 0.1265 µM): 0.546
relative viability ([9]; first compound 0.4 µM): 0.702
relative viability ([9]; first compound 4 µM): 0.56
relative viability ([10]; first compound 0.04 µM): 0.792
relative viability ([10]; first compound 0.1265 µM): 0.765
relative viability ([10]; first compound 0.4 µM): 0.943
relative viability ([10]; first compound 4 µM): 0.725
relative viability ([11]; first compound 0.04 µM): 0.838
relative viability ([11]; first compound 0.1265 µM): 0.758
relative viability ([11]; first compound 0.4 µM): 0.86
relative viability ([11]; first compound 4 µM): 0.807
relative viability ([12]; first compound 0.04 µM): 0.502
relative viability ([12]; first compound 0.1265 µM): 0.642
relative viability ([12]; first compound 0.4 µM): 0.479
relative viability ([12]; first compound 4 µM): 0.66
relative viability ([13]; first compound 0.04 µM): 0.891
relative viability ([13]; first compound 0.1265 µM): 0.891
relative viability ([13]; first compound 0.4 µM): 0.941
relative viability ([13]; first compound 4 µM): 0.765
relative viability ([14]; first compound 0.04 µM): 0.941
relative viability ([14]; first compound 0.1265 µM): 0.955
relative viability ([14]; first compound 4 µM): 0.929
relative viability ([15]; first compound 0.1265 µM): 0.222
relative viability ([15]; first compound 0.4 µM): 0.231
relative viability ([15]; first compound 4 µM): 0.221
relative viability ([16]; first compound 0.04 µM): 0.836
relative viability ([16]; first compound 0.1265 µM): 0.855
relative viability ([16]; first compound 0.4 µM): 0.847
relative viability ([16]; first compound 4 µM): 0.799
relative viability ([17]; first compound 0.04 µM): 0.5
relative viability ([17]; first compound 0.1265 µM): 0.544
relative viability ([17]; first compound 0.4 µM): 0.586
relative viability ([17]; first compound 4 µM): 0.478
relative viability ([18]; first compound 0.04 µM): 0.237
relative viability ([18]; first compound 0.1265 µM): 0.348
relative viability ([18]; first compound 0.4 µM): 0.226
relative viability ([18]; first compound 4 µM): 0.321
relative viability ([19]; first compound 0.04 µM): 0.238
relative viability ([19]; first compound 0.1265 µM): 0.22
relative viability ([19]; first compound 0.4 µM): 0.226
relative viability ([19]; first compound 4 µM): 0.18
relative viability ([20]; first compound 0.04 µM): 0.811
relative viability ([20]; first compound 0.1265 µM): 0.913
relative viability ([20]; first compound 0.4 µM): 0.625
relative viability ([20]; first compound 4 µM): 0.611
relative viability ([21]; first compound 0.04 µM): 0.205
relative viability ([21]; first compound 0.1265 µM): 0.188
relative viability ([21]; first compound 0.4 µM): 0.201
relative viability ([21]; first compound 4 µM): 0.161

CC(C)Oc1cc(Nc2nc(N[C@@H](C)c3ccc(F)cn3)ncc2Cl)n[nH]1 [AZ23] + NC(=O)Nc1cc(-c2cccc(F)c2)sc1C(=O)N[C@H]1CCCNC1 [AZD7762] (partner 0.2 µM)
relative viability ([1]; first compound 0.01 µM): 0.758
relative viability ([1]; first compound 0.03162 µM): 0.737
relative viability ([1]; first compound 0.3162 µM): 0.796
relative viability ([2]; first compound 0.01 µM): 1.6
relative viability ([2]; first compound 0.03162 µM): 1.41
relative viability ([2]; first compound 0.3162 µM): 1.32
relative viability ([3]; first compound 0.01 µM): 0.296
relative viability ([3]; first compound 0.03162 µM): 0.615
relative viability ([3]; first compound 0.3162 µM): 0.806
relative viability ([4]; first compound 0.01 µM): 0.954
relative viability ([4]; first compound 0.03162 µM): 1.14
relative viability ([4]; first compound 0.3162 µM): 1.12
relative viability ([5]; first compound 0.01 µM): 1.04
relative viability ([5]; first compound 0.03162 µM): 1.07
relative viability ([5]; first compound 0.3162 µM): 1.07
relative viability ([6]; first compound 0.01 µM): 0.935
relative viability ([6]; first compound 0.03162 µM): 0.95
relative viability ([6]; first compound 0.3162 µM): 0.809
relative viability ([7]; first compound 0.01 µM): 0.326
relative viability ([7]; first compound 0.03162 µM): 0.339
relative viability ([7]; first compound 0.3162 µM): 0.375
relative viability ([8]; first compound 0.01 µM): 0.538
relative viability ([8]; first compound 0.03162 µM): 0.864
relative viability ([8]; first compound 0.3162 µM): 0.843
relative viability ([9]; first compound 0.01 µM): 0.468
relative viability ([9]; first compound 0.03162 µM): 0.527
relative viability ([9]; first compound 0.3162 µM): 0.614
relative viability ([10]; first compound 0.01 µM): 0.828
relative viability ([10]; first compound 0.03162 µM): 0.958
relative viability ([10]; first compound 0.3162 µM): 0.931
relative viability ([11]; first compound 0.01 µM): 1.04
relative viability ([11]; first compound 0.03162 µM): 1.05
relative viability ([11]; first compound 0.3162 µM): 1.02
relative viability ([12]; first compound 0.01 µM): 0.516
relative viability ([12]; first compound 0.03162 µM): 0.697
relative viability ([12]; first compound 0.3162 µM): 0.681
relative viability ([13]; first compound 0.01 µM): 0.91
relative viability ([13]; first compound 0.03162 µM): 0.772
relative viability ([13]; first compound 0.3162 µM): 0.977
relative viability ([14]; first compound 0.01 µM): 1.09
relative viability ([14]; first compound 0.03162 µM): 1.02
relative viability ([14]; first compound 0.3162 µM): 1.11
relative viability ([15]; first compound 0.01 µM): 0.239
relative viability ([15]; first compound 0.03162 µM): 0.327
relative viability ([15]; first compound 0.3162 µM): 0.175
relative viability ([16]; first compound 0.01 µM): 0.93
relative viability ([16]; first compound 0.03162 µM): 0.811
relative viability ([16]; first compound 0.3162 µM): 0.959
relative viability ([17]; first compound 0.01 µM): 0.321
relative viability ([17]; first compound 0.03162 µM): 0.576
relative viability ([17]; first compound 0.3162 µM): 0.743
relative viability ([18]; first compound 0.03162 µM): 0.254
relative viability ([18]; first compound 0.3162 µM): 0.251
relative viability ([19]; first compound 0.03162 µM): 0.204
relative viability ([19]; first compound 0.3162 µM): 0.309
relative viability ([20]; first compound 0.01 µM): 0.718
relative viability ([20]; first compound 0.03162 µM): 0.818
relative viability ([20]; first compound 0.3162 µM): 0.782
relative viability ([21]; first compound 0.01 µM): 0.147
relative viability ([21]; first compound 0.03162 µM): 0.223
relative viability ([21]; first compound 0.3162 µM): 0.212
